How the values were obtained:
Assay type in all cases: in vivo
[1] = tested on: Ipomoea hederacea (IPOHE); experiment: Pre-emergence Test, Ipomoea hederacea (IPOHE); conditions: evaluated after 13 days
[2] = tested on: Amaranthus retoflexus (AMARE); experiment: Pre-emergence Test, Amaranthus retoflexus (AMARE); conditions: evaluated after 13 days
[3] = tested on: Echinochloa crus-galli (ECHCG); experiment: Post-emergence Test, Echinochloa crus-galli (ECHCG); set-up: key to percentage damage caused to the plant, ECHCG (five-point scale): 5=81-100%, 4=61-80%, 3=41-60%, 2=21-40%, 1=0-20% damage; conditions: evaluated after 13 days; for percentage damage caused to the plant, ECHCG (five-point scale): 250 g/Ha
Summary of the method: (§1)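 Scores are percentage plant damage on a 1–5 scale (1=0-20%, 2=21-40%, 3=41-60%, 4=61-80%, 5=81-100%), read 13 days after treatment. Pots received a spray at 1000 g/ha unless otherwise stated, formulated in acetone/water (50:50) containing 0.5% Tween 20.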

Setaria faberi (SETFA) = experiment: Post-emergence Test, Setaria faberi (SETFA); set-up: key to percentage damage caused to the plant, SETFA (five-point scale): 5=81-100%, 4=61-80%, 3=41-60%, 2=21-40%, 1=0-20% damage; conditions: 1000 g/ha, evaluated after 13 days
Summary of the method: as §1

[4] = tested on: Ipomoea hederacea (IPOHE); experiment: Post-emergence Test, Ipomoea hederacea (IPOHE); set-up: key to percentage damage caused to the plant, IPOHE (five-point scale): 5=81-100%, 4=61-80%, 3=41-60%, 2=21-40%, 1=0-20% damage; conditions: evaluated after 13 days
Summary of the method: as §1

Zea mays (ZEAMX) [5] = experiment: Post-emergence Test, Zea mays (ZEAMX); set-up: key to percentage damage caused to the plant, ZEAMX (five-point scale): 5=81-100%, 4=61-80%, 3=41-60%, 2=21-40%, 1=0-20% damage; conditions: evaluated after 13 days
Summary of the method: as §1

[6] = tested on: Amaranthus retoflexus (AMARE); experiment: Post-emergence Test, Amaranthus retoflexus (AMARE); set-up: key to percentage damage caused to the plant, AMARE (five-point scale): 5=81-100%, 4=61-80%, 3=41-60%, 2=21-40%, 1=0-20% damage; conditions: evaluated after 13 days
Summary of the method: as §1

[7] = tested on: Echinochloa crus-galli (ECHCG); experiment: Pre-emergence Test, Echinochloa crus-galli (ECHCG); conditions: evaluated after 13 days
Zea mays (ZEAMX) [8] = experiment: Pre-emergence Test, Zea mays (ZEAMX); conditions: evaluated after 13 days
[9] = tested on: Amaranthus palmeri (AMAPA); experiment: Post-emergence Test, Amaranthus palmeri (AMAPA); set-up: key: 5=81-100%, 4=61-80%, 3=41-60%, 2=21-40%, 1=0-20% damage; conditions: evaluated after 13 days
Summary of the method: as §1

[10] = tested on: Amaranthus palmeri (AMAPA); experiment: Pre-emergence Test, Amaranthus palmeri (AMAPA); conditions: evaluated after 13 days

CCn1c(Cn2ccc(C3CC3)n2)cc(=O)c(C(=O)O)c1-c1ccc(Cl)c(Cl)c1 [Compound 179, 6-[(3-cyclopropylpyrazol-1-yl)methyl]-2-(3,4-dichlorophenyl)-1-ethyl-4-oxo-pyridine-3-carboxylic acid]
Pre-emergence Test IPOHE, percentage damage caused to the plant (five-point scale) ([1]; 250 g/Ha (*)): 0
Pre-emergence Test IPOHE, percentage damage caused to the plant (five-point scale) ([1]; 1000 g/ha): 4 (4=61-80%)
Pre-emergence Test AMARE, percentage damage caused to the plant (five-point scale) ([2]; 1000 g/ha): 4 (4=61-80%)
percentage damage caused to the plant, ECHCG (five-point scale) [3]: 3 (3=41-60%)
percentage damage caused to the plant, SETFA (five-point scale) (Setaria faberi (SETFA)): 4 (4=61-80%)
percentage damage caused to the plant, IPOHE (five-point scale) ([4]; 250 g/Ha): 4 (4=61-80%)
percentage damage caused to the plant, IPOHE (five-point scale) ([4]; 1000 g/ha): 4 (4=61-80%)
percentage damage caused to the plant, ZEAMX (five-point scale) (Zea mays (ZEAMX) [5]; 250 g/Ha): 3 (3=41-60%)
percentage damage caused to the plant, ZEAMX (five-point scale) (Zea mays (ZEAMX) [5]; 1000 g/ha): 4 (4=61-80%)
percentage damage caused to the plant, AMARE (five-point scale) ([6]; 250 g/Ha): 0
percentage damage caused to the plant, AMARE (five-point scale) ([6]; 1000 g/ha): 3 (3=41-60%)
Pre-emergence Test ECHCG, percentage damage caused to the plant (five-point scale) ([7]; 250 g/Ha (*)): 1 (1=0-20%)
Pre-emergence Test ECHCG, percentage damage caused to the plant (five-point scale) ([7]; 1000 g/ha): 5 (5=81-100%)
Pre-emergence Test ZEAMX, percentage damage caused to the plant (five-point scale) (Zea mays (ZEAMX) [8]; 250 g/Ha (*)): 0
Pre-emergence Test ZEAMX, percentage damage caused to the plant (five-point scale) (Zea mays (ZEAMX) [8]; 1000 g/ha): 5 (5=81-100%)
percentage damage caused to the plant, AMAPA (five-point scale) ([9]; 250 g/Ha): 1 (1=0-20%)
percentage damage caused to the plant, AMAPA (five-point scale) ([9]; 1000 g/ha): 3 (3=41-60%)
Pre-emergence Test AMAPA, percentage damage caused to the plant (five-point scale) ([10]; 250 g/Ha (*)): 0
Pre-emergence Test AMAPA, percentage damage caused to the plant (five-point scale) ([10]; 1000 g/ha): 2 (2=21-40%)

CCn1c(Cn2ccc(OC(C)C)n2)cc(=O)c(C(=O)O)c1-c1ccc(Cl)c(Cl)c1 [Compound 166, 2-(3,4-dichlorophenyl)-1-ethyl-6-[(3-isopropoxypyrazol-1-yl)methyl]-4-oxo-pyridine-3-carboxylic acid]
Pre-emergence Test IPOHE, percentage damage caused to the plant (five-point scale) ([1]; 250 g/Ha (*)): 2 (2=21-40%)
Pre-emergence Test IPOHE, percentage damage caused to the plant (five-point scale) ([1]; 1000 g/ha): 4 (4=61-80%)
Pre-emergence Test AMARE, percentage damage caused to the plant (five-point scale) ([2]; 250 g/Ha (*)): 0
Pre-emergence Test AMARE, percentage damage caused to the plant (five-point scale) ([2]; 1000 g/ha): 1 (1=0-20%)
percentage damage caused to the plant, ECHCG (five-point scale) [3]: 4 (4=61-80%)
percentage damage caused to the plant, SETFA (five-point scale) (Setaria faberi (SETFA)): 5 (5=81-100%)
percentage damage caused to the plant, IPOHE (five-point scale) ([4]; 250 g/Ha): 2 (2=21-40%)
percentage damage caused to the plant, IPOHE (five-point scale) ([4]; 1000 g/ha): 4 (4=61-80%)
percentage damage caused to the plant, ZEAMX (five-point scale) (Zea mays (ZEAMX) [5]; 250 g/Ha): 2 (2=21-40%)
percentage damage caused to the plant, ZEAMX (five-point scale) (Zea mays (ZEAMX) [5]; 1000 g/ha): 4 (4=61-80%)
percentage damage caused to the plant, AMARE (five-point scale) ([6]; 250 g/Ha): 0
percentage damage caused to the plant, AMARE (five-point scale) ([6]; 1000 g/ha): 1 (1=0-20%)
Pre-emergence Test ECHCG, percentage damage caused to the plant (five-point scale) ([7]; 250 g/Ha (*)): 5 (5=81-100%)
Pre-emergence Test ECHCG, percentage damage caused to the plant (five-point scale) ([7]; 1000 g/ha): 5 (5=81-100%)
Pre-emergence Test ZEAMX, percentage damage caused to the plant (five-point scale) (Zea mays (ZEAMX) [8]; 250 g/Ha (*)): 1 (1=0-20%)
Pre-emergence Test ZEAMX, percentage damage caused to the plant (five-point scale) (Zea mays (ZEAMX) [8]; 1000 g/ha): 5 (5=81-100%)
percentage damage caused to the plant, AMAPA (five-point scale) ([9]; 250 g/Ha): 1 (1=0-20%)
percentage damage caused to the plant, AMAPA (five-point scale) ([9]; 1000 g/ha): 1 (1=0-20%)
Pre-emergence Test AMAPA, percentage damage caused to the plant (five-point scale) ([10]; 250 g/Ha (*)): 0
Pre-emergence Test AMAPA, percentage damage caused to the plant (five-point scale) ([10]; 1000 g/ha): 1 (1=0-20%)

CCn1c(Cn2ccc(-c3cccs3)n2)cc(=O)c(C(=O)O)c1-c1ccc(Cl)c(Cl)c1 [Compound 194, 2-(3,4-dichlorophenyl)-1-ethyl-4-oxo-6-[[3-(2-thienyl)pyrazol-1-yl]methyl]pyridine-3-carboxylic acid]
Pre-emergence Test IPOHE, percentage damage caused to the plant (five-point scale) ([1]; 250 g/Ha (*)): 1 (1=0-20%)
Pre-emergence Test IPOHE, percentage damage caused to the plant (five-point scale) ([1]; 1000 g/ha): 2 (2=21-40%)
Pre-emergence Test AMARE, percentage damage caused to the plant (five-point scale) ([2]; 250 g/Ha (*)): 0
Pre-emergence Test AMARE, percentage damage caused to the plant (five-point scale) ([2]; 1000 g/ha): 0
Post-emergence Test ECHCG, percentage damage caused to the plant (five-point scale) ([3]; 250 g/Ha (*)): 2 (2=21-40%)
Post-emergence Test SETFA, percentage damage caused to the plant (five-point scale) (Setaria faberi (SETFA)): 3 (3=41-60%)
Post-emergence Test IPOHE, percentage damage caused to the plant (five-point scale) ([4]; 250 g/Ha (*)): 1 (1=0-20%)
Post-emergence Test IPOHE, percentage damage caused to the plant (five-point scale) ([4]; 1000 g/ha): 2 (2=21-40%)
Post-emergence Test ZEAMX, percentage damage caused to the plant (five-point scale) (Zea mays (ZEAMX) [5]; 250 g/Ha (*)): 1 (1=0-20%)
Post-emergence Test ZEAMX, percentage damage caused to the plant (five-point scale) (Zea mays (ZEAMX) [5]; 1000 g/ha): 1 (1=0-20%)
Post-emergence Test AMARE, percentage damage caused to the plant (five-point scale) ([6]; 250 g/Ha (*)): 0
Post-emergence Test AMARE, percentage damage caused to the plant (five-point scale) ([6]; 1000 g/ha): 2 (2=21-40%)
Pre-emergence Test ECHCG, percentage damage caused to the plant (five-point scale) ([7]; 250 g/Ha (*)): 1 (1=0-20%)
Pre-emergence Test ECHCG, percentage damage caused to the plant (five-point scale) ([7]; 1000 g/ha): 2 (2=21-40%)
Pre-emergence Test ZEAMX, percentage damage caused to the plant (five-point scale) (Zea mays (ZEAMX) [8]; 250 g/Ha (*)): 0
Pre-emergence Test ZEAMX, percentage damage caused to the plant (five-point scale) (Zea mays (ZEAMX) [8]; 1000 g/ha): 1 (1=0-20%)
Post-emergence Test AMAPA, percentage damage caused to the plant (five-point scale) ([9]; 250 g/Ha (*)): 0
Post-emergence Test AMAPA, percentage damage caused to the plant (five-point scale) ([9]; 1000 g/ha): 1 (1=0-20%)
Pre-emergence Test AMAPA, percentage damage caused to the plant (five-point scale) ([10]; 250 g/Ha (*)): 0
Pre-emergence Test AMAPA, percentage damage caused to the plant (five-point scale) ([10]; 1000 g/ha): 0

CCn1c(Cn2ccc(-c3ccc(F)cc3)n2)cc(=O)c(C(=O)O)c1-c1ccc(Cl)c(Cl)c1 [Compound 193, 2-(3,4-dichlorophenyl)-1-ethyl-6-[[3-(4-fluorophenyl)pyrazol-1-yl]methyl]-4-oxo-pyridine-3-carboxylic acid]
Pre-emergence Test IPOHE, percentage damage caused to the plant (five-point scale) ([1]; 1000 g/ha): 1 (1=0-20%)
Pre-emergence Test AMARE, percentage damage caused to the plant (five-point scale) ([2]; 1000 g/ha): 0
percentage damage caused to the plant, ECHCG (five-point scale) [3]: 3 (3=41-60%)
percentage damage caused to the plant, SETFA (five-point scale) (Setaria faberi (SETFA)): 0
percentage damage caused to the plant, IPOHE (five-point scale) ([4]; 250 g/Ha): 0
percentage damage caused to the plant, IPOHE (five-point scale) ([4]; 1000 g/ha): 2 (2=21-40%)
percentage damage caused to the plant, ZEAMX (five-point scale) (Zea mays (ZEAMX) [5]; 250 g/Ha): 0
percentage damage caused to the plant, ZEAMX (five-point scale) (Zea mays (ZEAMX) [5]; 1000 g/ha): 1 (1=0-20%)
percentage damage caused to the plant, AMARE (five-point scale) ([6]; 250 g/Ha): 0
percentage damage caused to the plant, AMARE (five-point scale) ([6]; 1000 g/ha): 1 (1=0-20%)
Pre-emergence Test ECHCG, percentage damage caused to the plant (five-point scale) ([7]; 1000 g/ha): 0
Pre-emergence Test ZEAMX, percentage damage caused to the plant (five-point scale) (Zea mays (ZEAMX) [8]; 1000 g/ha): 0
percentage damage caused to the plant, AMAPA (five-point scale) ([9]; 250 g/Ha): 0
percentage damage caused to the plant, AMAPA (five-point scale) ([9]; 1000 g/ha): 1 (1=0-20%)
Pre-emergence Test AMAPA, percentage damage caused to the plant (five-point scale) ([10]; 1000 g/ha): 0

— patent publication US20250098679A1, “HERBICIDAL PYRIDONE DERIVATIVES” (SYNGENTA CROP PROTECTION AG, priority 2021, published 2025)
